Reference: publication PMC4268911 (International Journal of Nanomedicine, 2014)

Tests used:
MCF-7 cells = assay: In vitro cytotoxicity of conjugate, MTS-based assay; type: cell-based, human; settings: MCF-7, 0–200 μg mL−1 polymer, 24 hours
MDAMB 231 cells = assay: as above; type: cell-based, human; settings: MDAMB 231, 0–200 μg mL−1 polymer, 24 hours

## Low-molecular-weight heparin [LMWH]
MCF-7 cells
  cytotoxicity (cell viability): no severe in vitro cytotoxicity
MDAMB 231 cells
  cytotoxicity (cell viability): no severe in vitro cytotoxicity
